Measured values taken from patent US5885994A, “Tetrahydroquinoxaline dopamine D4 receptor antagonists” (Warner-Lambert Company, priority 1998, dated 1999).

Test system: locomotor activity
Test: Behavioral activity (locomotor activity) in the Omnitech Digiscan Animal Activity Monitors
Assay type: in vivo, mice and rats
Protocol: PROTOCOL FOR THE BEHAVIORAL ACTIVITY ASSESSMENT OF MICE AND RATS IN THE OMNITECH DIGISCAN ANIMAL ACTIVITY MONITORS
The purpose of this test is to evaluate compounds for antipsychotic-like central nervous system (CNS) effects and a variety of other behavioral effects generally associated with CNS activity. […] Generally, however, drug effects on behavior are assessed using total distance traveled (in cm) as the most accurate measure of locomotor activity.
Male CD-1 albino mice weighing 20 to 40 g (Charles River Laboratories) or male Sprague-Dawley rats weighing 150 to 300 g (Harlan Laboratories) are used for these studies. […] Drug doses are expressed as the active moiety (taking into account the salt vs free base molecular weight of the drug). […]
Once the animal is placed in the activity chamber, the chambers are individually activated to begin collecting data. Activity levels are generally monitored with the overhead lights turned off, as the dark-stimulation tends to produce less variation in the data. […]
Data can be expressed as either actual counts, time (in sec), centimeters traveled, or percent inhibition of activity relative to vehicle-treated control animals tested concurrently. Significant changes in activity (i.e., cm traveled), relative to controls, are determined by t-test or analysis of variance and Newman-Keul's multiple-range test. […]

In the case of `Cc1ccc(N2CCN(Cc3ccc4c(c3)NCCN4)CC2)cc1C` [Example 2, 6-[4-(3,4-Dimethylphenyl)piperazin-1-ylmethyl]-1,2,3,4-tetrahydroquinoxaline], the “Omnitech Digiscan Activity Monitor test (result in words)” value (1, 3, 10, 30 mg/kg IP) is reported as “dose-dependent decrease” and the ED50 (Mus musculus, ip) is reported as 16.5 mg/kg.
